Experimental data taken from publication PMC9917249, “Zinc Inhibits the GABAAR/ATPase during Postnatal Rat Development: The Role of Cysteine Residue” (International Journal of Molecular Sciences, 2023).

Target: T1, homomeric GABAAR β3 (Rattus norvegicus, UniProt P63079)
T1 construct: gene Gabrb3
Assay: BCECF fluorescence, GABA-mediated HCO3- efflux
Assay type: cell-based
Conditions: 25 mM HCO3-; pH 7.4

T1 sequence (P63079 26-473): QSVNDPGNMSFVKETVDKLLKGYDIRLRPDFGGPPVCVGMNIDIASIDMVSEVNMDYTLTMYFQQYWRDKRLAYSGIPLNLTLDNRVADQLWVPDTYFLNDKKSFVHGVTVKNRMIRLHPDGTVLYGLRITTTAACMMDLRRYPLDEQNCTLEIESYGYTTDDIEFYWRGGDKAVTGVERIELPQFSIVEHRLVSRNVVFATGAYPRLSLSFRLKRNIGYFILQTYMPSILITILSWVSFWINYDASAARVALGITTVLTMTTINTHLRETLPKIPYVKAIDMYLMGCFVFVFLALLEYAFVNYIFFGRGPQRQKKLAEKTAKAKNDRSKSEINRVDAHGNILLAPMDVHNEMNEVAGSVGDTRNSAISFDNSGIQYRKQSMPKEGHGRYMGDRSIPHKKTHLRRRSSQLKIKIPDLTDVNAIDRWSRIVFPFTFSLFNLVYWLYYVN

maximum peak fluorescence change at 100 μM GABA: 14.0 ± 1.3%
Compound: NCCCC(=O)O [GABA]
